“Also recorded” adds a separate entry of the source.
Key:
[1] = target: CSF1R (Homo sapiens, UniProt P07333); assay: Postmortem human brain autoradiography; type: binding; parameters: from tissue; conditions: for Autoradiography binding, Baseline: inferior parietal cortex slices
Source text: Use of human tissues has been approved by the Institutional Review Board of the Johns Hopkins Medical Institutions. […] The slides were exposed to X-ray film and analyzed with outcome expressed as pmol/mm^3 of wet tissue±SD.

[2] = target: T1, CSF1R (Mus musculus, UniProt P09581); assay: Blocking study with unlabeled CPPC in control mice; type: in vivo; parameters: from tissue; host or cells: brain of living CD-1, C57BL/6J, transgenic APP (AD model), EAE and CSF1R KO mice
T1 sequence (P09581 20-977): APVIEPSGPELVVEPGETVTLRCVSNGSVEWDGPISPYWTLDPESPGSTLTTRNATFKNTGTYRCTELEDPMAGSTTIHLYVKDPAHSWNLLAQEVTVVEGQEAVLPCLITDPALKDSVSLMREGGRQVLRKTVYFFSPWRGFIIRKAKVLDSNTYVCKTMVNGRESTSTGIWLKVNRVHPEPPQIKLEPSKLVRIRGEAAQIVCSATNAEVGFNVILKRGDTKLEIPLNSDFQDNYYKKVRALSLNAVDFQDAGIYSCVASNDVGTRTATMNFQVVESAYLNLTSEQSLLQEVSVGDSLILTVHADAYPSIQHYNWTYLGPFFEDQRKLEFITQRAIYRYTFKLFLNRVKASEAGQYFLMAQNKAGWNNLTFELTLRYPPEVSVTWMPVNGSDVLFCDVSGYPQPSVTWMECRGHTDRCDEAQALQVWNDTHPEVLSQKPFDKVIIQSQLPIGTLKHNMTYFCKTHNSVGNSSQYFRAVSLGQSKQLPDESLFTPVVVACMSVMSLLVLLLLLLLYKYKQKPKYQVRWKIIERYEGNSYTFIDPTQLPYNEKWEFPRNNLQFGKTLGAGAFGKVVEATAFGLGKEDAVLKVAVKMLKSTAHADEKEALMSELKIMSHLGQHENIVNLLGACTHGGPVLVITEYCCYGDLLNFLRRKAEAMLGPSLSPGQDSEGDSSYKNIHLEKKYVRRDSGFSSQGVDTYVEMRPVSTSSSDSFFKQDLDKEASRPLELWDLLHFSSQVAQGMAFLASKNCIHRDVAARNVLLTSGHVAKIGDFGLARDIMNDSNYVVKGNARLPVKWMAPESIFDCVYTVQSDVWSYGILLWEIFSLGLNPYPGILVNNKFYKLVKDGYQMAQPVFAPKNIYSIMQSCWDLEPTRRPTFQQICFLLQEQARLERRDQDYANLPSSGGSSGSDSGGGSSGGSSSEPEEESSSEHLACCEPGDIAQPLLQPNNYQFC
Description: Mice (male CD1 or C57BL/6J) were killed by cervical dislocation at 45 min following i.v. injection of [^11C]CPPC. The blockers, CPPC (0.3, 0.6, 1.2, 3.0, 10, and 20 mg/kg), or CSF1R inhibitor, compound 8 (Illig C R, et al. (2008)) (2 mg/kg), were given i.p., 5 min before [^11C]CPPC, whereas baseline animals received vehicle. […] Regional brain uptake of [^11C]CPPC at baseline was compared with that with blocking.
Animals were sacrificed by cervical dislocation at 45 min following injection of 5.1 MBq (0.14 mCi) [^11C]CPPC [specific radioactivity=511 GBq/μmol (13.8 Ci/μmol)] in 0.2 mL saline into a lateral tail vein. […] The percentage of standardized uptake value (% SUV) was calculated.
Animals were sacrificed by cervical dislocation at 45 min following injection of 5.0 MBq (0.135 mCi) [^11C]CPPC [specific radioactivity=390 GBq/μmol (10.5 Ci/μmol)] in 0.2 mL saline into a lateral tail vein. […] The outcome variables for the cortex are presented without blood correction as % SUV (FIG. 11A) and with blood correction as SUVR (FIG. 11B).

[3] = male, baboon, in vivo, 90 min
[4] = Mouse plasma and brain radiometabolite analysis; type: in vivo, mice
Description: The animals were injected IV with 37 MBq (1 mCi) [^11C]CPPC [specific radioactivity=673 GBq/μmol (18.2 Ci/μmol)] and sacrificed by cervical dislocation at 10 min (3 animals) and 30 min (3 animals) after the radiotracer injection. […] Radiometabolites of [^11C]CPPC in the mouse plasma and brain were analyzed using a general HPLC method described above for baboon. Before the HPLC analysis the mouse brain was homogenized in 2 mL of mixture 50% acetonitrile: 50% phosphate buffer (Et3N, H3PO4, pH 7.2). The homogenates were centrifuged (14000 g for 5 min) and supernatants filtered using 0.2 micron filter and filtrate was analyzed by radio-HPLC with phenomenex Gemini C18, 10μ, 4.6×250 mm and 2 mL/min isocratic elution and 50% acetonitrile-50% aqueous triethylamine, c=0.06 M and pH=7.2 as mobile phase. […] The radiometabolites poorly penetrate the blood-brain barrier and their presence in the brain is low (Table 4)

[5] = target: T1, CSF1R; assay: Brain uptake in transgenic mouse model of AD; type: in vivo, mice; parameters: from tissue; host or cells: brain of living CD-1, C57BL/6J, transgenic APP (AD model), EAE and CSF1R KO mice; conditions: all brain regions, 45 min
Source text: Mouse model of Alzheimer's disease-related amyloidosis overexpressed Amyloid Precursor Protein (APP) with Swedish and Indiana mutations was used. The transgenic APP had tetracycline transactivator (tTa)-sensitive promoter that was activated by over-expressing tTa driven by CaMKII promoter (5). Due to such combination of transgenes, the overexpression of transgenic APP was observed only in principal neurons of the forebrain. […] The Alzheimer's male mice (AD) and their sex-matched control littermates were 16 months of age at the time of the study. […] The outcome variables were calculated as % SUV.

Chain of CSF1R (Homo sapiens, UniProt P07333) (P07333 20-972): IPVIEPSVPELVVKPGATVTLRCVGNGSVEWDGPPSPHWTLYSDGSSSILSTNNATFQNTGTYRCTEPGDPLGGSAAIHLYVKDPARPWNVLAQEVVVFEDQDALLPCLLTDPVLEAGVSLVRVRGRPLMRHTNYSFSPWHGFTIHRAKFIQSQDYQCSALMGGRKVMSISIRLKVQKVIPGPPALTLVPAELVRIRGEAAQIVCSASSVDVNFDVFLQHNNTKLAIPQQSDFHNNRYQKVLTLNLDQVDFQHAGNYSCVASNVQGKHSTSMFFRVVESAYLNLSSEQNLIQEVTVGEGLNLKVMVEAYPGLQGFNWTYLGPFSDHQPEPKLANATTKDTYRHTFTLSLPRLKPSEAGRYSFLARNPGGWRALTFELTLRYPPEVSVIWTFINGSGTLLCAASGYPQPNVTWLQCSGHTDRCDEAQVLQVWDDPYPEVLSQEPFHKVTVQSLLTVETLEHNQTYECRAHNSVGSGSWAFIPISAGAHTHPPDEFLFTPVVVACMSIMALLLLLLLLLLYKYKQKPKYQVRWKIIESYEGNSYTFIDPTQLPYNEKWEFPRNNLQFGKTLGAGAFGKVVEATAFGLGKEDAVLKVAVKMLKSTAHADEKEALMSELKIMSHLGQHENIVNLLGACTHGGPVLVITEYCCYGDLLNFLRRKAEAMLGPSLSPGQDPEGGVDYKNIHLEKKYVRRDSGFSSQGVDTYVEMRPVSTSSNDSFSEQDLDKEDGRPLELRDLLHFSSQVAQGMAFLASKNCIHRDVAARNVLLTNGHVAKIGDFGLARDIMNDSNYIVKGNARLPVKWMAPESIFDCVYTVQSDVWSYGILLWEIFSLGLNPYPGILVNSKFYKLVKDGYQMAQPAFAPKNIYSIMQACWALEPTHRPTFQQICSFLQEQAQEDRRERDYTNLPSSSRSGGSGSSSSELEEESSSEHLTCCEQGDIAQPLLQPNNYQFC

Question: Which “increase of radiotracer binding in AD brain vs. control brain slices” value ([1]; baseline autoradiography) does the source give for `[11CH3]N1CCN(c2ccc(NC(=O)c3ccc(C#N)o3)c(N3CCCCC3)c2)CC1` [[^11C]CPPC, 5-cyano-N-(4-(4-[^11C]methylpiperazin-1-yl)-2-(piperidin-1-yl)phenyl)furan-2-carboxamide] here?
Answer: The value was 75-99%.

Question: What about the “Autoradiography binding, Blocking with unlabeled CPPC” value (from here on “Autoradiography binding, Blocking”) ([1]; sample 1-AD) of the same compound?
Answer: Its value is 4.72 ± 1.07 pmol/mm3.

Question: What about the “Autoradiography binding, Baseline” value ([1]; sample 1-AD) of the same compound?
Answer: The value was 8.18 ± 0.68 pmol/mm3.

Question: What about the “Autoradiography binding, Blocking” value ([1]; sample 2-AD) of the same compound?
Answer: The value was 2.67 ± 0.53 pmol/mm3.

Question: And the “Autoradiography binding, Baseline” value ([1]; sample 2-AD)?
Answer: Its value is 7.20 ± 1.55 pmol/mm3.

Question: And the “Autoradiography binding, Blocking” value ([1]; sample 3-AD)?
Answer: The value was 3.73 ± 1.07 pmol/mm3.

Question: And the “Autoradiography binding, Baseline” value ([1]; sample 3-AD)?
Answer: Its value is 7.43 ± 1.59 pmol/mm3.

Question: What about the “Autoradiography binding, Blocking” value ([1]; sample 4-control) of the same compound?
Answer: Its value is 2.86 ± 1.06 pmol/mm3.

Question: And the “Autoradiography binding, Baseline” value ([1]; sample 4-control)?
Answer: Its value is 4.11 ± 1.14 pmol/mm3.

Question: What about the “blood corrected cortex SUVR, blocking vs baseline” value ([2]; CD1 mice, unlabeled CPPC 0.6 and 3 mg/kg, P=0.05, n=3) of the same compound?
Answer: The value was “significantly lower”.

Question: And the “cortex % SUV, blocking vs baseline, without blood correction” value ([2]; CD1 mice, unlabeled CPPC 0.6 and 3 mg/kg, P>0.05, n=3)?
Answer: The value was “No significant difference”.

Question: And the “reduction of radioactivity (SUVR, blood-corrected) with blocking” value ([2]; control CD1 mice, cortex, unlabeled CPPC 0.6 and 3 mg/kg IP, 45 min)?
Answer: The value was 20%.

Question: And the “% SUV brain uptake with blocking, low doses of unlabeled CPPC” value ([2]; control CD1 mice, dose escalation, 0.6-3 mg/kg, 45 min, no blood correction)?
Answer: Its value is “no reduction; also recorded: failed to show a significant reduction; also recorded: insignificant blockade”.

Question: What about the “% SUV brain uptake with blocking, high doses of unlabeled CPPC” value ([2]; control CD1 mice, dose escalation, 10-20 mg/kg, 45 min, no blood correction) of the same compound?
Answer: The value was “gradual trend toward increased uptake; also recorded: insignificant gradual increase of uptake”.

Question: What about the “total radiometabolites in blood” value [3] of the same compound?
Answer: Its value is 71-76%.

Question: And the “Brain Parent [^11C]CPPC, %” value ([4]; 10 min)?
Answer: The value was 96.6 ± 0.1%.

Question: What about the “Plasma Parent [^11C]CPPC, %” value ([4]; 10 min) of the same compound?
Answer: The value was 70.2 ± 2.2%.

Question: What about the “Brain Parent [^11C]CPPC, %” value ([4]; 30 min) of the same compound?
Answer: Its value is 95.1 ± 1.6%.

Question: What about the “Plasma Parent [^11C]CPPC, %” value ([4]; 30 min) of the same compound?
Answer: Its value is 39.7 ± 1.3%.

Question: And the “uptake in brain regions of AD mice vs control” value [5]?
Answer: The value was “significantly greater; also recorded: significantly higher”.
